Tests used:
[1] = tested on: mouse BALB/cN macrophage (J774A.1) cell line; test: Cell viability by flow cytometry in macrophages; settings: 24 h, 25, 100 and 400 µg/mL, vs DMEM control
[2] = tested on: 49-day-old S. mansoni adult worms; test: In vitro experiments with adult worms of S. mansoni (mortality, motor activity); format: cell-based, Schistosoma mansoni; settings: for Dead Worms (%) F / Motor Activity Reduction (%) Significant F / Motor Activity Reduction (%) Slight F: female worms; for Dead Worms (%) M / Motor Activity Reduction (%) Significant M / Motor Activity Reduction (%) Slight M: male worms
Experimental: The Belo Horizonte (BH) strain of S. mansoni was maintained in Biomphalaria glabrata snails and Mesocricetus auratus hamsters at the Adolfo Lutz Institute (São Paulo, Brazil) according to standard procedures. Detailed methods for the infection of molluscs and hamsters, as well as for the recovery of parasites, were as described previously. Briefly, the intermediate host snails were exposed to light for approximately 3 h and cercariae of S. mansoni were subsequently harvested. […] All animals were handled in strict accordance with good animal practice as defined by the Animal Use Ethics Committee. The preparations and culture of schistosomes was performed as previously described. Briefly, hamsters were killed 49 days after infection for the recovery of adult schistosomes. Next, fresh adult worm pairs (male and female) were washed and placed in a 24-well culture plate (TPP, St. […] Adult schistosomes were maintained continuously in medium (with or without drugs) for 96 h as described below. In vitro assays in S. mansoni adults were performed with mated males and females. The worm pairs obtained from the infusion hamsters were washed twice with RPMI 1640 medium containing 200 U/mL penicillin, 200 μg/mL streptomycin and 2 μg/mL amphotericin B (Vitrocell, Campinas, Brazil). The mated parasites were then transferred into 24-well cell culture plates (TPP, St. […] Cultures of adult worms were monitored by microscopy or magnifying glass. The effect of the drug was assessed with emphasis on changes in worm motor activity and death of worms as previously described.

[3] = tested on: murine fibroblast (NIH-3T3) cells; test: MTT cytotoxicity assay in murine fibroblasts; format: cell-based
Experimental: Next, the medium was removed and various concentrations (25–800 µg/mL) of samples reconstituted in 3% DMSO were applied. DMSO (3%) was used as a control. The plates were incubated for 24 h. Next, 15 µL of MTT solution (5 mg/mL in phosphate buffer) was added to each well and the plates were incubated for 2 h. Medium was discarded and 100 µL of DMSO was added to each well. Absorbance was determined using a spectrophotometer with a microplate reader at 595 nm (Molecular Devices Corporation, Sunnyvale, CA, USA).

O=C(/C=C/c1ccc([N+](=O)[O-])cc1)N(C(=O)NC1CCCCC1)C1CCCCC1 [Compound 6B]
effect on J774A.1 cell viability (in words) [1]: did not reduce cell viability at the same concentrations
Dead Worms (%) F ([2]; 5 µM, 14 h): 0%
Motor Activity Reduction (%) Significant F ([2]; 5 µM, 14 h): 0%
Motor Activity Reduction (%) Slight F ([2]; 5 µM, 14 h): 0%
Dead Worms (%) M ([2]; 5 µM, 14 h): 0%
Motor Activity Reduction (%) Significant M ([2]; 5 µM, 14 h): 0%
Motor Activity Reduction (%) Slight M ([2]; 5 µM, 14 h): 0%
Dead Worms (%) F ([2]; 5 µM, 48 h): 0%
Motor Activity Reduction (%) Significant F ([2]; 5 µM, 48 h): 0%
Motor Activity Reduction (%) Slight F ([2]; 5 µM, 48 h): 0%
Dead Worms (%) M ([2]; 5 µM, 48 h): 0%
Motor Activity Reduction (%) Significant M ([2]; 5 µM, 48 h): 0%
Motor Activity Reduction (%) Slight M ([2]; 5 µM, 48 h): 0%
Dead Worms (%) F ([2]; 5 µM, 72 h): 0%
Motor Activity Reduction (%) Significant F ([2]; 5 µM, 72 h): 0%
Motor Activity Reduction (%) Slight F ([2]; 5 µM, 72 h): 0%
Dead Worms (%) M ([2]; 5 µM, 72 h): 0%
Motor Activity Reduction (%) Significant M ([2]; 5 µM, 72 h): 0%
Motor Activity Reduction (%) Slight M ([2]; 5 µM, 72 h): 0%
Dead Worms (%) F ([2]; 5 µM, 96 h): 0%
Motor Activity Reduction (%) Significant F ([2]; 5 µM, 96 h): 0%
Motor Activity Reduction (%) Slight F ([2]; 5 µM, 96 h): 0%
Dead Worms (%) M ([2]; 5 µM, 96 h): 0%
Motor Activity Reduction (%) Significant M ([2]; 5 µM, 96 h): 0%
Motor Activity Reduction (%) Slight M ([2]; 5 µM, 96 h): 0%
Dead Worms (%) F ([2]; 10 µM, 24 h): 0%
Motor Activity Reduction (%) Significant F ([2]; 10 µM, 24 h): 0%
Motor Activity Reduction (%) Slight F ([2]; 10 µM, 24 h): 0%
Dead Worms (%) M ([2]; 10 µM, 24 h): 0%
Motor Activity Reduction (%) Significant M ([2]; 10 µM, 24 h): 0%
Motor Activity Reduction (%) Slight M ([2]; 10 µM, 24 h): 0%
Dead Worms (%) F ([2]; 10 µM, 48 h): 0%
Motor Activity Reduction (%) Significant F ([2]; 10 µM, 48 h): 0%
Motor Activity Reduction (%) Slight F ([2]; 10 µM, 48 h): 0%
Dead Worms (%) M ([2]; 10 µM, 48 h): 0%
Motor Activity Reduction (%) Significant M ([2]; 10 µM, 48 h): 0%
Motor Activity Reduction (%) Slight M ([2]; 10 µM, 48 h): 0%
Dead Worms (%) F ([2]; 10 µM, 72 h): 0%
Motor Activity Reduction (%) Significant F ([2]; 10 µM, 72 h): 0%
Motor Activity Reduction (%) Slight F ([2]; 10 µM, 72 h): 0%
Dead Worms (%) M ([2]; 10 µM, 72 h): 0%
Motor Activity Reduction (%) Significant M ([2]; 10 µM, 72 h): 0%
Motor Activity Reduction (%) Slight M ([2]; 10 µM, 72 h): 0%
Dead Worms (%) F ([2]; 10 µM, 96 h): 0%
Motor Activity Reduction (%) Significant F ([2]; 10 µM, 96 h): 0%
Motor Activity Reduction (%) Slight F ([2]; 10 µM, 96 h): 0%
Dead Worms (%) M ([2]; 10 µM, 96 h): 0%
Motor Activity Reduction (%) Significant M ([2]; 10 µM, 96 h): 0%
Motor Activity Reduction (%) Slight M ([2]; 10 µM, 96 h): 0%
Dead Worms (%) F ([2]; 25 µM, 24 h): 0%
Motor Activity Reduction (%) Significant F ([2]; 25 µM, 24 h): 0%
Motor Activity Reduction (%) Slight F ([2]; 25 µM, 24 h): 0%
Dead Worms (%) M ([2]; 25 µM, 24 h): 0%
Motor Activity Reduction (%) Significant M ([2]; 25 µM, 24 h): 0%
Motor Activity Reduction (%) Slight M ([2]; 25 µM, 24 h): 0%
Dead Worms (%) F ([2]; 25 µM, 48 h): 0%
Motor Activity Reduction (%) Significant F ([2]; 25 µM, 48 h): 0%
Motor Activity Reduction (%) Slight F ([2]; 25 µM, 48 h): 0%
Dead Worms (%) M ([2]; 25 µM, 48 h): 0%
Motor Activity Reduction (%) Significant M ([2]; 25 µM, 48 h): 0%
Motor Activity Reduction (%) Slight M ([2]; 25 µM, 48 h): 0%
Dead Worms (%) F ([2]; 25 µM, 72 h): 0%
Motor Activity Reduction (%) Significant F ([2]; 25 µM, 72 h): 0%
Motor Activity Reduction (%) Slight F ([2]; 25 µM, 72 h): 0%
Dead Worms (%) M ([2]; 25 µM, 72 h): 0%
Motor Activity Reduction (%) Significant M ([2]; 25 µM, 72 h): 0%
Motor Activity Reduction (%) Slight M ([2]; 25 µM, 72 h): 0%
Dead Worms (%) F ([2]; 25 µM, 96 h): 0%
Motor Activity Reduction (%) Significant F ([2]; 25 µM, 96 h): 0%
Motor Activity Reduction (%) Slight F ([2]; 25 µM, 96 h): 0%
Dead Worms (%) M ([2]; 25 µM, 96 h): 0%
Motor Activity Reduction (%) Significant M ([2]; 25 µM, 96 h): 0%
Motor Activity Reduction (%) Slight M ([2]; 25 µM, 96 h): 0%
Dead Worms (%) F ([2]; 50 µM, 24 h): 0%
Motor Activity Reduction (%) Significant F ([2]; 50 µM, 24 h): 0%
Motor Activity Reduction (%) Slight F ([2]; 50 µM, 24 h): 0%
Dead Worms (%) M ([2]; 50 µM, 24 h): 0%
Motor Activity Reduction (%) Significant M ([2]; 50 µM, 24 h): 0%
Motor Activity Reduction (%) Slight M ([2]; 50 µM, 24 h): 0%
Dead Worms (%) F ([2]; 50 µM, 48 h): 0%
Motor Activity Reduction (%) Significant F ([2]; 50 µM, 48 h): 0%
Motor Activity Reduction (%) Slight F ([2]; 50 µM, 48 h): 0%
Dead Worms (%) M ([2]; 50 µM, 48 h): 0%
Motor Activity Reduction (%) Significant M ([2]; 50 µM, 48 h): 0%
Motor Activity Reduction (%) Slight M ([2]; 50 µM, 48 h): 0%
Dead Worms (%) F ([2]; 50 µM, 72 h): 0%
Motor Activity Reduction (%) Significant F ([2]; 50 µM, 72 h): 0%
Motor Activity Reduction (%) Slight F ([2]; 50 µM, 72 h): 0%
Dead Worms (%) M ([2]; 50 µM, 72 h): 0%
Motor Activity Reduction (%) Significant M ([2]; 50 µM, 72 h): 0%
Motor Activity Reduction (%) Slight M ([2]; 50 µM, 72 h): 0%
Dead Worms (%) F ([2]; 50 µM, 96 h): 0%
Motor Activity Reduction (%) Significant F ([2]; 50 µM, 96 h): 0%
Motor Activity Reduction (%) Slight F ([2]; 50 µM, 96 h): 0%
Dead Worms (%) M ([2]; 50 µM, 96 h): 0%
Motor Activity Reduction (%) Significant M ([2]; 50 µM, 96 h): 0%
Motor Activity Reduction (%) Slight M ([2]; 50 µM, 96 h): 0%
activity against S. mansoni adult worms (in words) ([2]; analogues 50, 25, 10 and 5 μM, piplartine 5 and 10 μM, up to 96 h): did not present biological activity against the S. mansoni parasite
effect on NIH-3T3 cell viability (in words) ([3]; MTT, 24 h exposure, 25 to 800 µg/mL): did not exert significant effects on mammalian cell viability at the tested concentrations
Emax at 800 µg/mL ([3]; Mus musculus, NIH3T3, 24 h, decrease in cell viability at the maximum concentration tested (800 μg/mL), NIH-3T3, 24 h): < 50%

O=C(C1CCCCC1)N1CC(=O)N2CCc3ccccc3C2C1 (stereo not shown) [Praziquantel, praziquantel, reference compound]
Dead Worms (%) M ([2]; 2 µM, 24 h): 100%
Motor Activity Reduction (%) Significant M ([2]; 2 µM, 24 h): 100%
Motor Activity Reduction (%) Slight M ([2]; 2 µM, 24 h): 0%
Dead Worms (%) M ([2]; 2 µM, 48 h): 100%
Motor Activity Reduction (%) Significant M ([2]; 2 µM, 48 h): 100%
Motor Activity Reduction (%) Slight M ([2]; 2 µM, 48 h): 0%
Dead Worms (%) M ([2]; 2 µM, 72 h): 100%
Motor Activity Reduction (%) Significant M ([2]; 2 µM, 72 h): 100%
Motor Activity Reduction (%) Slight M ([2]; 2 µM, 72 h): 0%
Dead Worms (%) M ([2]; 2 µM, 96 h): 100%
Motor Activity Reduction (%) Significant M ([2]; 2 µM, 96 h): 100%
Motor Activity Reduction (%) Slight M ([2]; 2 µM, 96 h): 0%

Source: paper PMC6032158, “Structure–Activity Relationship of Piplartine and Synthetic Analogues against Schistosoma mansoni and Cytotoxicity to Mammalian Cells” (International Journal of Molecular Sciences, 2018)
